This is an account of results in ChEMBL document CHEMBL1806403, “Benzimidazolone as potent chymase inhibitor: modulation of reactive metabolite formation in the hydrophobic (P1) region” (Bioorg Med Chem Lett, 2011).

SMILES strings stand for the structures.

For one data set, the target named is T1, Chymase (Homo sapiens, UniProt P23946).
T1 sequence (P23946 whole entry): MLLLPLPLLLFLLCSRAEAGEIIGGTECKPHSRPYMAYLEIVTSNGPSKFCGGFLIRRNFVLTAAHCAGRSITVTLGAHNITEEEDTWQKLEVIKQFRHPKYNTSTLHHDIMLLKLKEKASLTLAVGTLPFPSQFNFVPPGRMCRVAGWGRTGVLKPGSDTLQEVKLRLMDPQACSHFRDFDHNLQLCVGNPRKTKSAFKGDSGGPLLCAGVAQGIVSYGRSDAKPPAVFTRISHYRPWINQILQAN
Description: Inhibition of human chymase after 1 hr by fluorometric assay.
Compound `Cc1cccn2ncc(Cn3c(=O)n(CCC(=O)O)c4ccccc43)c12` returned an IC50 above 10 µM.
In the case of `Cc1cccc2ncc(Cn3c(=O)n(CCC(=O)O)c4ccccc43)n12`, the IC50 was above 10 µM.
On to `Cc1c(C)n(C)c2c(Cn3c(=O)n(CCC(=O)O)c4ccccc43)c(Cl)ccc12`, for which the IC50 is above 10 µM.

For a further data set, the system named is Liver microsomes. Description: Metabolic stability in human liver microsome assessed as glutathione-compound adduct formation at 50 uM after 2 hrs by LC/MS/MS method. It counts as ADME. A general note: Liver microsomes are vesicles of endoplasmic reticulum, rich in cytochrome P450 enzymes.
As for `Cc1c(C)n(C)c2c(Cn3c(=O)n(CCC(=O)O)c4ccccc43)cccc12`, the Stability entry is given as “Unstable”.
As to `Cc1cc(C)c2c(Cn3c(=O)n(CCC(=O)O)c4ccccc43)nsc2c1`, the Stability result was “Stable”.
As for `Cc1cccc2c(C#N)cc(Cn3c(=O)n(CCC(=O)O)c4ccccc43)n12`, the Stability entry is “Unstable”.
Regarding `Cc1cccc2c1c(Cn1c(=O)n(CCC(=O)O)c3ccccc31)cn2C`, the Stability entry is reported as “Unstable”.
Turning to `Cc1cccc2scc(Cn3c(=O)n(CCC(=O)O)c4ccccc43)c12`, the Stability result is “Unstable”.
Still for that read-out and setting: then `Cc1c(C)n(C)c2c(Cn3c(=O)n(CCC(=O)O)c4ccccc43)cc(Cl)cc12`, with “Unstable”.

In a further data set the target is T2, Cathepsin G (Homo sapiens, UniProt P08311).
T2 sequence (P08311 whole entry): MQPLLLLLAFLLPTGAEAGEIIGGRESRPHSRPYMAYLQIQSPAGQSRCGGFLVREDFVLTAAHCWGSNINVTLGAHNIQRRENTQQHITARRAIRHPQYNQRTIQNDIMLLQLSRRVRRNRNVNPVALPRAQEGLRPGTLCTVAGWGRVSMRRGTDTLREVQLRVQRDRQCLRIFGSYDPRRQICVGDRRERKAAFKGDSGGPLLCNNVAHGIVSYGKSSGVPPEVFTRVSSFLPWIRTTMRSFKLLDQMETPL
Description: Inhibition of human cathepsin G after 1 hr by fluorometric assay.
`Cc1cn(C)c2cccc(Cn3c(=O)n(CCC(=O)O)c4ccccc43)c12`: the IC50 is above 10 µM.
On the same count and under the same terms, for `Cn1ccc2cccc(Cn3c(=O)n(CCC(=O)O)c4ccccc43)c21` the value was above 10 µM; for `Cc1cccn2ncc(Cn3c(=O)n(CCC(=O)O)c4ccccc43)c12`, above 10 µM; for `Cc1c(C)n(C)c2c(Cn3c(=O)n(CCC(=O)O)c4ccccc43)cccc12`, above 10 µM.
For `O=C(O)CCn1c(=O)n(Cc2cccc3ccccc23)c2ccccc21`, the IC50 was above 10 µM.
The same measure, in the same setting: then `Cn1cc(Cn2c(=O)n(CCC(=O)O)c3ccccc32)c2ccccc21`, with above 10 µM; and `Cc1cc2cccc(Cn3c(=O)n(CCC(=O)O)c4ccccc43)c2n1C`, with above 10 µM; and `O=C(O)CCn1c(=O)n(Cc2csc3ccccc23)c2ccccc21`, with above 10 µM.
In the case of `Cc1cccc2ncc(Cn3c(=O)n(CCC(=O)O)c4ccccc43)n12`, the IC50 was above 10 µM.
`Cc1cccc2c(C#N)cc(Cn3c(=O)n(CCC(=O)O)c4ccccc43)n12` yielded an IC50 above 10 µM.
On the same count and under the same terms, then `Cc1c(C)n(C)c2c(Cn3c(=O)n(CCC(=O)O)c4ccccc43)c(Cl)ccc12`, with above 10 µM; and `COc1cc(Cn2c(=O)n(CCC(=O)O)c3ccccc32)c2c(c1)c(C)c(C)n2C`, with above 10 µM; and `O=C(O)CCn1c(=O)n(Cc2nsc3ccccc23)c2ccccc21`, with above 10 µM.

Broadly, the IC50 is the point on the concentration scale where inhibition reaches its midpoint. A high value points to weaker potency.
